What was measured:
TAp73 = experiment: Western blot of endogenous TAp73 protein in U373 and T98G glioblastoma cell lines; assay type: cell-based, human; conditions: 72 h, BMT9 9 and 18 µM, TMZ 350 µM, BCNU 150 µM
Procedure: Next, we compared the effect of BMT9 and TMZ or BCNU treatments on endogenous TAp73 protein levels in U373 and T98G glioblastoma cell lines (Figure 2F and G). Cells were treated for 72 h either with BMT9 at 9 and 18 µM, or with TMZ and BCNU at the standard concentrations referred in other articles (350 µM and 150 µM, respectively). Protein extracts were obtained and analyzed by Western blot using a TAp73 specific antibody and GAPDH as a loading control. Densitometric quantification of the obtained blots are represented in Figure 2F and G (Y axis, ratio of TAp73/GAPDH band intensity and X axis, indicated treatments).

U373 = experiment: MTT-based cytotoxicity assay, U373; assay type: cell-based; conditions: Homo sapiens, U373 MG, 72 h
Procedure: A dose-response analysis of BMT9 (concentrations ranging from 4.5 µM-18 µM), BCNU (from 150 µM-500 µM) and TMZ (350 µM-700 µM) was performed in two conventional glioblastoma cell lines (T98G, U373) and the GNS cell line G144 by MTT-based cytotoxicity assays (Figure 5A-D). Cells were seeded on p96-well plates and treated with the different compounds for 72 h. Then, the MTT reagent (3-(4,5-Dimethyl-2-thiazolyl)-2,5-diphenyl-2H-tetrazolium bromide diluted in PBS to a concentration of 1mg/ml), was added to each well to a final concentration of 0.33mg/ml, and incubated for 3 h at 37°C. After that, the media was removed, and formazan crystals were solubilized with DMSO. Absorbance was measured at 560 nm using a "Synergy HT" plate reader (Biotek). In the graphs, the Y axis represents the percentage of cell viability relative to non-treated cells. The IC50, when reached are marked by a rectangle. DMSO treatment had no effect on cell viability.

GNSCs = experiment: Sphere-forming clonogenic assay of GNSCs; assay type: cell-based; conditions: 4.5 µM and 9 µM, sphere forming conditions (data not shown)
Procedure: To further investigate whether BMT9 reduced stemness potential of the GNSCs, we performed a sphere-forming clonogenic assay. Cells were seeded on sphere forming conditions, that is 40,000 cells/ml without laminin coating. Cells were treated with BMT9 at 4.5 µM and 9 µM 24 h after seeding.

[1] = tested on: transcript levels originated from the P1-TP73 promoter (TAp73, ΔEx2p73 and ΔEx2/3p73); experiment: qRT-PCR of P1-TP73 promoter transcripts in G144 cells; assay type: cell-based, human; conditions: G144, 72 h, dose dependent
Text: As before, all isoforms were reduced by treatment, with TAp73 and ΔEx2/3p73 being the predominant isoforms, while ΔN'p73 was barely detected (Figure 4A). Ribosomal RNA 18S was used as housekeeping control, and all expression levels were normalized to the TAp73 NT value.

[2] = Maximum Tolerated Dose after intraperitoneal administration; conditions: mouse, in vivo, ip; female C57BL/6 mice, single intraperitoneal dose, seven days
Procedure: (§1) The Maximum Tolerated Dose (MTD) and Pharmacokinetics (PK) of BMT9 were determined after intraperitoneal administration to female C57BL/6 (~25 g) mice.
C57BL/6 female mice (9-13 weeks in age) were administered intraperitoneally with a single dose of BMT9 at 35, 50, 75, 100 or 200 mg/Kg. Total of 3 animals were used for each independent serial sampling experiment. The compound was dissolved in an appropriate vehicle (Cremophor:EtOH:H20 1:1:8). Body weight, distress and survival were monitored 1, 2, 4 hours and 8 hours post-administration and every day during the whole observation period. The MTD was set on the dose below the first dose that caused severe loss of body weight (>20%) or death of one or more animals of a dose group seven days after treatment. The MTD of BMT9 was therefore set on about 140 mg/kg. The concentrations of BMT9 in plasma was determined at different times per duplicate using a previously validated analytical method. The compound was injected via i.p at 100 mg/kg. Total of 3 animals were used for each independent serial sampling experiment. Blood samples were collected at 5, 15, 30 min, 1, 4, 10, 24, and 48 hours from each animal via cardiac puncture; […] withdrawn at each time point. 25 microliters of blood sample were then used for quantitative bioanalysis by HPLC-MS/MS. […]

[3] = Pharmacokinetics in plasma after intraperitoneal administration; assay type: in vivo; conditions: female C57BL/6 mice, i.p. 100 mg/kg
Procedure: as §1
C57BL/6 female mice (9-13 weeks in age) were administered intraperitoneally with a single dose of BMT9 at 35, 50, 75, 100 or 200 mg/Kg. Total of 3 animals were used for each independent serial sampling experiment. The compound was dissolved in an appropriate vehicle (Cremophor:EtOH:H20 1:1:8). Body weight, distress and survival were monitored 1, 2, 4 hours and 8 hours post-administration and every day during the whole observation period. The MTD was set on the dose below the first dose that caused severe loss of body weight (>20%) or death of one or more animals of a dose group seven days after treatment. The MTD of BMT9 was therefore set on about […]. The concentrations of BMT9 in plasma was determined at different times per duplicate using a previously validated analytical method. The compound was injected via i.p at 100 mg/kg. Total of 3 animals were used for each independent serial sampling experiment. Blood samples were collected at 5, 15, 30 min, 1, 4, 10, 24, and 48 hours from each animal via cardiac puncture; […] withdrawn at each time point. 25 microliters of blood sample were then used for quantitative bioanalysis by HPLC-MS/MS. The fundamental pharmacokinetic parameters were obtained from the non-compartmental analysis using PK Solutions 2.0.2.

[4] = tested on: invasiveness-related genes; experiment: qRT-PCR of invasiveness-related genes in G144 cells; assay type: cell-based, human; conditions: G144, 4.5 µM, 72 h
Procedure: For expression analysis, G144 cells were treated with BMT9 (4.5 µM) and after 72 h mRNA was extracted and qRT-PCR was performed.

C=C1C2CCC(C)(C3COc4c(C)c(OC)c5c(c4C3O)C(O)OC5=O)C1CCC2(C)C (stereo not drawn) [BMT9]
endogenous TAp73 protein levels (TAp73/GAPDH) (TAp73): efficiently reduced endogenous TAp73 expression
IC50 (U373): 18 µM
sphere generation (GNSCs): reduce sphere generation in a dose dependent manner
transcript levels originated from the P1-TP73 promoter (TAp73, ΔEx2p73 and ΔEx2/3p73) [1]: downregulated
MTD at 168 h [2]: ~140 mg/kg
highest concentration in the plasma [3]: 7611 ng/mL
time at which plasma concentration reached the control levels post-administration [3]: 24 h
time of highest concentration in the plasma after injection [3]: 4 h
expression of a set of invasiveness-related genes [4]: downregulation of all the analyzed genes

Reference: patent EP4349409A1, “COMPOUNDS FOR THE MANAGEMENT OF CELL STEMNESS AND INVASION IN CANCER AND RELATED DISEASES” (Instituto Biomar S.A., priority 2022, dated 2024)
